± gives the standard deviation of the averaged measurements.
Columns and labels:
UT-SCC-42A = experiment: drug sensitivity score (DSS); higher = more sensitive; extreme values may be limits of the assay; conditions: treatment time: 3 days
In short: (§1)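 HPV-negative HNSCC cell lines were plated at 500 cells/well in 384-well plates, either on plastic, on wells coated with Matrigel or Myogel (500 µg/mL), or embedded in Matrigel or Myogel plus rat collagen I. Each compound was tested at five 10-fold concentrations over 3 days. Viability was measured by CellTiter-Glo 2.0 luminescence, and IC50, maximal inhibition and drug sensitivity score came from percent-inhibition dose–response curves fitted in the FIMM pipeline after normalisation to vehicle (0.1% DMSO) and cell-killing control wells.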

UT-SCC-8 = experiment: as above; conditions: treatment time: 3 days
In short: as §1

UT-SCC-40 [1] = experiment: as above; conditions: treatment time: 3 days
In short: as §1

UT-SCC-24A [2] = experiment: maximal % inhibition of viability relative to DMSO; higher = stronger effect; conditions: treatment time: 3 days
Experimental: (§2)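 HNSCC cell lines (500 cells/well, 384-well) were cultured on plastic, on top of (2D) or embedded (3D) in Matrigel or human leiomyoma matrix Myogel (500 ug/mL; Myogel 3D mixed with rat collagen I). Cells were treated for 3 days with 5 ten-fold concentrations of each drug, and viability was read by CellTiter-Glo. Viability was normalised to DMSO (0% inhibition) and 100 uM benzethonium chloride (100% inhibition) controls and fitted with the FIMM DSRT pipeline to give IC50 (nM), maximal % inhibition and the drug sensitivity score (DSS). Suffixes _1/_2/_3 on drug names are replicates.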

UT-SCC-24A [3] = experiment: relative IC50 (midpoint of the fitted curve; maximal inhibition may be below 50%); higher = less potent; conditions: treatment time: 3 days
Experimental: as §2

UT-SCC-24A [4] = experiment: drug sensitivity score (DSS); higher = more sensitive; conditions: treatment time: 3 days
Experimental: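 HNSCC cell lines (500 cells/well, 384-well) were cultured on plastic, on top of (2D) or embedded (3D) in Matrigel or human leiomyoma matrix Myogel (500 ug/mL; Myogel 3D mixed with rat collagen I). Cells were treated for 3 days with 5 ten-fold concentrations of each drug, and viability was read by CellTiter-Glo. Suffixes _1/_2/_3 on drug names are replicates.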

UT-SCC-44 = experiment: relative IC50 (midpoint of the fitted curve; maximal inhibition may be below 50%); higher = less potent; conditions: treatment time: 3 days
In short: as §1

UT-SCC-73 = experiment: as above; conditions: treatment time: 3 days
In short: as §1

UT-SCC-106A = experiment: as above; conditions: treatment time: 3 days
In short: as §1

UT-SCC-42B = experiment: as above; conditions: culture condition: on top of Myogel; treatment time: 3 days
In short: as §1

UT-SCC-40 [5] = experiment: as above; conditions: treatment time: 3 days
In short: as §1

[6] = culture condition: embedded in Matrigel
[7] = culture condition: embedded in Myogel + collagen I
[8] = culture condition: on top of Matrigel
[9] = culture condition: on top of Myogel
[10] = culture condition: plastic 2D (no matrix)

CO[C@H]1C[C@@H]2CC[C@@H](C)[C@@](O)(O2)C(=O)C(=O)N2CCCC[C@H]2C(=O)O[C@H]([C@H](C)C[C@@H]2CC[C@@H](OC(=O)C(C)(CO)CO)[C@H](OC)C2)CC(=O)[C@H](C)/C=C(\C)[C@@H](O)[C@@H](OC)C(=O)[C@H](C)C[C@H](C)/C=C/C=C/C=C/1C [Temsirolimus]
drug sensitivity score (UT-SCC-42A; [6]): 4.67 ± 1.3 DSS
drug sensitivity score (UT-SCC-42A; [7]): 5.23 ± 3.3 DSS
drug sensitivity score (UT-SCC-42A; [8]): 5.87 ± 1.4 DSS
drug sensitivity score (UT-SCC-42A; [9]): 6.4 ± 0.35 DSS
drug sensitivity score (UT-SCC-42A; [10]): 4.5 ± 1.1 DSS
drug sensitivity score (UT-SCC-8; [6]): 9.4 ± 0.36 DSS
drug sensitivity score (UT-SCC-8; [7]): 4.53 ± 0.57 DSS
drug sensitivity score (UT-SCC-8; [8]): 9.17 ± 1.2 DSS
drug sensitivity score (UT-SCC-8; [9]): 11.4 ± 1.6 DSS
drug sensitivity score (UT-SCC-8; [10]): 10.4 ± 1.1 DSS
drug sensitivity score (UT-SCC-40 [1]; [6]): 6.03 ± 2 DSS
drug sensitivity score (UT-SCC-40 [1]; [7]): 6.8 ± 2.6 DSS
drug sensitivity score (UT-SCC-40 [1]; [8]): 4.17 ± 1.6 DSS
drug sensitivity score (UT-SCC-40 [1]; [9]): 4.53 ± 1.1 DSS
drug sensitivity score (UT-SCC-40 [1]; [10]): 3.6 ± 1 DSS
maximal % inhibition of viability (UT-SCC-24A [2]; [6]): 46.8 ± 44%
maximal % inhibition of viability (UT-SCC-24A [2]; [7]): 40.8 ± 6.7%
maximal % inhibition of viability (UT-SCC-24A [2]; [8]): 33.3 ± 6.1%
maximal % inhibition of viability (UT-SCC-24A [2]; [9]): 28.7 ± 1.9%
maximal % inhibition of viability (UT-SCC-24A [2]; [10]): 33.8 ± 2.7%
relative IC50 (UT-SCC-24A [3]; [8]): 2.16 nM
relative IC50 (UT-SCC-24A [3]; [9]): 2.23 nM
relative IC50 (UT-SCC-24A [3]; [10]): 1.66 nM
drug sensitivity score (UT-SCC-24A [4]; [6]): 10.2 ± 11 DSS
drug sensitivity score (UT-SCC-24A [4]; [7]): 9.67 ± 2.8 DSS
drug sensitivity score (UT-SCC-24A [4]; [8]): 4.9 ± 1.3 DSS
drug sensitivity score (UT-SCC-24A [4]; [9]): 5.03 ± 1.2 DSS
drug sensitivity score (UT-SCC-24A [4]; [10]): 6.07 ± 0.67 DSS
relative IC50 (UT-SCC-44; [8]): 0.711 nM
relative IC50 (UT-SCC-44; [10]): 0.691 nM
relative IC50 (UT-SCC-73; [7]): 0.997 nM
relative IC50 (UT-SCC-73; [8]): 0.383 nM
relative IC50 (UT-SCC-73; [10]): 1.06 nM
relative IC50 (UT-SCC-106A; [8]): 3.18 nM
relative IC50 (UT-SCC-106A; [9]): 4.08 nM
relative IC50 (UT-SCC-106A; [10]): 1.95 nM
relative IC50 (UT-SCC-42B): > 98.9 nM
relative IC50 (UT-SCC-40 [5]; [7]): 2.84 nM
relative IC50 (UT-SCC-40 [5]; [8]): 0.896 nM

From the supplement of paper PMC7017272
